Assay results published in patent US20110245284A1, “Alkoxy- and Alkylthio-Substituted Anilinopyrimidines” (Bayer CropScience AG, priority 2008, published 2011).
Where two headings read alike, the source gives them in different places.

Experiments:
Fusarium proliferatum = assay: Production of fumonisin FB1 by Fusarium proliferatum (microtitre plates; FB1 by HPLC-MS/MS, growth by OD620); assay type: cell-based; conditions: for IC50: Fusarium proliferatum, 144 h
Venturia inaequalis = assay: Venturia test (apple) / protective; assay type: in vivo; conditions: 240 h, active compound concentration 100 ppm, evaluation 10 days after inoculation, read-out: efficacy
Method: After the spray coating has dried on, the plants are inoculated with an aqueous conidia suspension of the apple scab pathogen Venturia inaequalis and then remain for 1 day in an incubation cabinet at about 20° C. and 100% relative atmospheric humidity.

[1] = logP by HPLC on reversed-phase columns (C 18), method [a], acidic range pH 2.3; assay type: physicochemical; conditions: pH 2.3, logP (pH2.3)
Method: (§1) The logP values were determined in accordance with EEC Directive 79/831 Annex V.A8 by HPLC (High Performance Liquid Chromatography) on reversed-phase columns (C 18), using the methods below:
[a] The determination is carried out in the acidic range at pH 2.3 using the mobile phases 0.1% aqueous phosphoric acid and acetonitrile, linear gradient from 10% acetonitrile to 95% acetonitrile.

Leptosphaeria nodorum = Leptosphaeria nodorum test (wheat) / protective; assay type: in vivo; conditions: Parastagonospora nodorum, active compound concentration 500 ppm, evaluation 7-9 days after inoculation, read-out: efficacy
Method: Thereafter, the plants are placed in a greenhouse at 90% relative atmospheric humidity and a temperature of 22° C.

[2] = logP by LC-MS on reversed-phase columns (C 18), method [b], acidic range pH 2.7; assay type: physicochemical; conditions: for chromatographic logP: pH 2.7, log p
Method: as §1
[b] The LC-MS determination in the acidic range is carried out at pH 2.7 using the mobile phases 0.1% aqueous formic acid and acetonitrile (contains 0.1% formic acid), linear gradient from 10% acetonitrile to 95% acetonitrile.

Pyrenophora teres = Pyrenophora teres test (barley) / protective; assay type: in vivo; conditions: 192 h, active compound concentration 500 ppm, evaluation 8 days after inoculation, read-out: efficacy
Method: After the spray coating has dried on, the plants are sprayed with a spore suspension of Pyrenophora teres. The plants remain in an incubation cabinet for 48 hours at 20° C. and 100% relative atmospheric humidity.

Alternaria solani = assay: Alternaria test (tomato) / protective; assay type: in vivo; conditions: 72 h, active compound concentration 100 ppm, evaluation 3 days after inoculation, read-out: efficacy
Method: The plants are then placed in an incubation cabinet at about 20° C. and 100% relative atmospheric humidity.

Sphaerotheca fuliginea = assay: Sphaerotheca test (cucumber) / protective; assay type: in vivo; conditions: Podosphaera fuliginea, 168 h, active compound concentration 500 ppm, evaluation 7 days after inoculation, read-out: efficacy
Method: The plants are subsequently placed in a greenhouse at 70% relative atmospheric humidity and a temperature of 23° C.

Pyricularia oryzae = assay: whole plant or invertebrate; assay type: in vivo; conditions: 120 h, read-out: efficacy
Rhizoctonia solani = assay: Rhizoctonia test (rice) / protective; assay type: in vivo; conditions: 96 h, active compound concentration 250 ppm, evaluation 4 days after inoculation, read-out: efficacy
Cochliobolus miyabeanus = assay: Cochliobolus test (rice) / protective; conditions: Bipolaris oryzae, in Oryza sativa, 96 h, read-out: efficacy
Method: Cochliobolus Test (Rice)/Protective • Solvent: 28.5 parts by weight of acetone • Emulsifier: 1.5 parts by weight of alkylaryl polyglycol ether
1 day after the treatment, the plants are inoculated with an aqueous spore suspension of Cochliobolus miyabeanus. The plants are then placed in a greenhouse at 100% relative atmospheric humidity and 25° C.
Evaluation is carried out 4 days after the inoculation.

[3] = logP by LC-MS on reversed-phase columns (C 18), method [c], neutral range pH 7.8; assay type: physicochemical; conditions: pH 7.8
Method: as §1
[c] The LC-MS determination in the neutral range is carried out at pH 7.8 using the mobile phases 0.001 molar aqueous ammonium bicarbonate solution and acetonitrile, linear gradient from 10% acetonitrile to 95% acetonitrile.

[4] = growth, OD620 at the beginning and after 6 days, read-out: pI50 growth (converted)

Structure (SMILES) | IC50 (Fusarium proliferatum; read-out: pI50 Fum) | IC50 (Fusarium proliferatum; [4]) | pest or weed control at 100 ppm (Venturia inaequalis) | chromatographic logP [1] | pest or weed control at 500 ppm (Leptosphaeria nodorum) | chromatographic logP [2] | pest or weed control at 500 ppm (Pyrenophora teres) | pest or weed control at 100 ppm (Alternaria solani) | pest or weed control at 500 ppm (Sphaerotheca fuliginea) | pest or weed control at 250 ppm (Pyricularia oryzae) | pest or weed control at 250 ppm (Rhizoctonia solani) | pest or weed control at 250 ppm (Cochliobolus miyabeanus) | pI50 Fum (Fusarium proliferatum; fumonisin FB1 production, 6 days at 20° C., HPLC-MS/MS) | pI50 growth (Fusarium proliferatum; growth, OD620 at the beginning and after 6 days) | log p ([2]; pH 2.7) | chromatographic logP [3]
COCC(C)Oc1ccc(Nc2ncc(Br)c(NC3CC3)n2)cc1 (stereo not drawn) [Example 1, 5-Bromo-N^4-cyclopropyl-N^2-{4-[(1-methoxypropan-2-yl)oxy]phenyl}pyrimidine-2,4-diamine] | 1.26 µM | 6.31 µM | ≥ 70% | 1.83 | ≥ 70% | 1.83 | – | – | – | – | – | – | – | – | – | –
CCSC(C)c1cccc(Nc2ncc(Br)c(NC3CCC3)n2)c1 (stereo not drawn) [Example 12] | 10 µM | > 50.1 µM | ≥ 70% | – | ≥ 70% | 3.49 | ≥ 70% | ≥ 70% | – | – | – | – | – | – | – | –
COC(C)c1cccc(Nc2ncc(Cl)c(NC3CCC3)n2)c1 (stereo not drawn) [Example 15] | – | – | ≥ 70% | – | ≥ 70% | 2.27 | ≥ 70% | ≥ 70% | ≥ 70% | ≥ 80% | ≥ 80% | ≥ 80% | – | – | – | –
COCc1cccc(Nc2ncc(C(F)(F)F)c(NC3CCC3)n2)c1 [Example 24] | 2 µM | 7.94 µM | – | – | ≥ 70% | 3.3 | ≥ 70% | – | – | ≥ 80% | ≥ 80% | – | – | – | – | –
COCc1cccc(Nc2ncc(Cl)c(NC(C)C)n2)c1 [Example 26] | – | – | ≥ 70% | – | ≥ 70% | 1.76 | – | ≥ 70% | – | ≥ 80% | ≥ 80% | ≥ 80% | – | – | – | –
CCS(=O)(=O)c1cccc(Nc2ncc(Cl)c(NC3CCC3)n2)c1 [Example 27, 5-chloro-N^4-cyclobutyl-N^2-[3-(ethylsulphonyl)phenyl]pyrimidine-2,4-diamine] | 2 µM | 20 µM | ≥ 70% | 2.21 | ≥ 70% | 2.21 | – | ≥ 70% | ≥ 70% | ≥ 80% | – | ≥ 80% | – | – | – | –
CC[S+]([O-])C(C)c1cccc(Nc2ncc(C(F)(F)F)c(NC3CC3)n2)c1 (stereo not drawn) [Example 45] | – | – | – | – | – | – | – | – | – | – | – | – | 5.0 | 4.7 | 2.2[b] | –
CCCSc1cccc(Nc2ncc(Br)c(NC3CCC3)n2)c1 [Example 57] | – | – | ≥ 70% | – | ≥ 70% | 3.96 | ≥ 70% | ≥ 70% | ≥ 70% | ≥ 80% | ≥ 80% | ≥ 80% | – | – | – | –
COC(C)(C)Cc1cccc(Nc2ncc(Cl)c(NC3CC3)n2)c1 [Example 64] | 0.631 µM | 5.01 µM | ≥ 70% | – | ≥ 70% | 2.21 | ≥ 70% | ≥ 70% | – | ≥ 80% | – | – | – | – | – | 3.81
CC[S+]([O-])C(C)c1cccc(Nc2ncc(Cl)c(NC3CCC3)n2)c1 (stereo not drawn) [Example 76] | – | – | ≥ 70% | – | ≥ 70% | 1.68 | ≥ 70% | ≥ 70% | ≥ 70% | ≥ 80% | ≥ 80% | ≥ 80% | – | – | – | 2.53
CCS(=O)(=O)C(C)c1cccc(Nc2ncc(Cl)c(NC3CCC3)n2)c1 (stereo not drawn) [Example 77] | – | – | ≥ 70% | – | ≥ 70% | 1.9 | ≥ 70% | ≥ 70% | ≥ 70% | ≥ 80% | ≥ 80% | ≥ 80% | – | – | – | 2.98
COC(C)c1cccc(Nc2ncc(Cl)c(NCC(F)(F)F)n2)c1 (stereo not drawn) [Example 83] | – | – | ≥ 70% | – | ≥ 70% | 2.82 | – | ≥ 70% | ≥ 70% | ≥ 80% | ≥ 80% | ≥ 80% | – | – | – | 3.18
COC(C)c1cc(Nc2ncc(Cl)c(NC3CC3)n2)ccc1C (stereo not drawn) [Example 92] | – | – | ≥ 70% | – | ≥ 70% | 2.11 | – | ≥ 70% | ≥ 70% | ≥ 80% | – | ≥ 80% | – | – | – | 3.7
CCOCCOc1cccc(Nc2ncc(Cl)c(NC3CC3)n2)c1 [Example 93] | – | – | ≥ 70% | – | ≥ 70% | 2.13 | ≥ 70% | ≥ 70% | ≥ 70% | ≥ 80% | – | ≥ 80% | – | – | – | 3.3
CCC[S+]([O-])c1cccc(Nc2ncc(Cl)c(NC3CCC3)n2)c1 (stereo not drawn) [Example 100] | – | – | ≥ 70% | – | ≥ 70% | 2.09 | – | ≥ 70% | – | ≥ 80% | ≥ 80% | ≥ 80% | – | – | – | –
CCSc1cccc(Nc2ncc(C(F)(F)F)c(NC3CC3)n2)c1 [Example 101] | – | – | – | – | ≥ 70% | 3.95 | ≥ 70% | – | ≥ 70% | ≥ 80% | ≥ 80% | ≥ 80% | – | – | – | 4.21
CCCCSc1cccc(Nc2ncc(Cl)c(NC3CCC3)n2)c1 [Example 106] | – | – | ≥ 70% | – | ≥ 70% | 4.28 | – | ≥ 70% | – | ≥ 80% | ≥ 80% | ≥ 80% | – | – | – | 5.13
CCS(=O)(=O)c1cccc(Nc2ncc(C(F)(F)F)c(NC3CC3)n2)c1 [Example 116] | – | – | ≥ 70% | – | ≥ 70% | 2.74 | ≥ 70% | – | ≥ 70% | ≥ 80% | ≥ 80% | ≥ 80% | – | – | – | 2.8
CC[S+]([O-])c1cccc(Nc2ncc(C(F)(F)F)c(NC3CC3)n2)c1 (stereo not drawn) [Example 117] | – | – | – | – | ≥ 70% | 2.2 | ≥ 70% | – | ≥ 70% | ≥ 80% | ≥ 80% | ≥ 80% | – | – | – | 2.46
CCCCS(=O)(=O)c1cccc(Nc2ncc(C(F)(F)F)c(NC3CC3)n2)c1 [Example 121] | – | – | ≥ 70% | – | ≥ 70% | 3.4 | – | ≥ 70% | ≥ 70% | ≥ 80% | ≥ 80% | ≥ 80% | – | – | – | 3.46
COC(C)c1cccc(Nc2ncc(Cl)c(NC(C)C)n2)c1 (stereo not drawn) [Example 129] | – | – | ≥ 70% | – | ≥ 70% | 2.02 | – | ≥ 70% | ≥ 70% | ≥ 80% | ≥ 80% | ≥ 80% | – | – | – | 3.67
